The values that follow are results of earlier work, collected in patent US20160144033A1, “CONCENTRATED ACETAMINOPHEN SOLUTION” (Emphascience, Inc., priority 2014, published 2016).

The conditions of this series: room temperature.

For the compound `CC(=O)Nc1ccc(O)cc1` [acetaminophen], the “solubility of acetaminophen in water” value is given as “ca. 13 mg per ml”.
